Calls of active or inactive are those of the source. The calls are words filed in the database; no cut-off is given here.
Columns and labels:
MDA-MB-231 [1] = experiment: Antitumour activity against human MDA-MB-231 cells xenografted in BALB/c nude mouse assessed as upregulation of p21 level at 15 to 30 mg/kg, ip administered once for every other day for 20 days by Western blot analysis; type: functional, organism-based; conditions: dose 15-30 mg/kg, time 20.0 day
MDA-MB-231 [2] = experiment: Cell cycle arrest in human MDA-MB-231 cells assessed as accumulation of cells at S phase at 5 uM measured after 24 hrs by propidium iodide staining based flow cytometry (reference value: 27.6%); type: functional
MDA-MB-231 [3] = experiment: Inhibition of PI3K in human MDA-MB-231 cells assessed as Akt phosphorylation by Western blot analysis; type: cell-based
MCF7 [4] = experiment: Cell cycle arrest in human MCF-7 cells assessed as downregulation of cyclin E1 expression by Western blot analysis; type: functional, cell-based
MCF7 [5] = experiment: Induction of apoptosis in human MCF-7 cells assessed as upregulation of cleaved poly(ADP-ribose) polymerase level at 1.67 to 15 uM measured after 24 hrs by Western blot analysis; type: functional, cell-based; conditions: dose 1.67-15 µM
MCF7 [6] = experiment: Cytotoxicity against human MCF-7 cells measured by MTT assay; type: functional, cell-based
MCF7 [7] = experiment: Induction of apoptosis in human MCF-7 cells assessed as increase in Bax protein expression at 1.67 to 15 uM measured after 24 hrs by Western blot analysis; type: functional, cell-based; conditions: dose 1.67-15 µM
MDA-MB-231 [8] = experiment: Induction of mitochondrial apoptosis in human MDA-MB-231 cells assessed as formation of apoptotic bodies by Hoechst 33258 staining based fluorescence microscopic assay; type: functional, cell-based
MDA-MB-231 [9] = experiment: Cell cycle arrest in human MDA-MB-231 cells assessed as accumulation of cells at G2/M phase at 5 uM measured after 24 hrs by propidium iodide staining based flow cytometry (reference value: 27.5%); type: functional
MCF7 [10] = experiment: Cell cycle arrest in human MCF-7 cells assessed as downregulation of CDK4 expression by Western blot analysis; type: functional, cell-based
MDA-MB-231 [11] = experiment: Cell cycle arrest in human MDA-MB-231 cells assessed as downregulation of cyclin D1 expression by Western blot analysis; type: functional, cell-based
MCF7 [12] = experiment: Effect on Akt expression in human MCF7 cells by Western blot analysis; type: functional, cell-based
MCF7 [13] = experiment: Induction of mitochondrial apoptosis in human MCF7 cells assessed as early apoptotic cells at 15 uM measured after 24 hrs by FITC -annexin V/PI double staining based flow cytometric analysis (reference value: 3.3%); type: functional
MDA-MB-231 [14] = experiment: Cell cycle arrest in human MDA-MB-231 cells assessed as downregulation of cyclin E1 expression by Western blot analysis; type: functional, cell-based
MCF7 [15] = experiment: Inhibition of PI3K in human MCF7 assessed as Akt phosphorylation by Western blot analysis
MDA-MB-231 [16] = experiment: Induction of apoptosis in human MDA-MB-231 cells assessed as decrease in Bcl-2 level at 0.56 to 5 uM measured after 24 hrs by Western blot analysis; type: functional, cell-based; conditions: dose 0.56-5 µM
MDA-MB-231 [17] = experiment: Cytotoxicity against human MDA-MB-231 cells measured by MTT assay; type: functional, cell-based
MDA-MB-231 [18] = experiment: Cell cycle arrest in human MDA-MB-231 cells assessed as downregulation of cyclin D3 expression by Western blot analysis; type: functional, cell-based
MDA-MB-231 [19] = experiment: Antitumour activity against human MDA-MB-231 cells xenografted in BALB/c nude mouse assessed as upregulation of cleaved caspase-3 level at 15 to 30 mg/kg, ip administered once for every other day for 20 days by Western blot analysis; type: functional, organism-based; conditions: dose 15-30 mg/kg, time 20.0 day
[20] = Selective index, ratio of IC50 for HUVEC cells to IC50 of MCF-7 cells; type: toxicity; conditions: human, HUVEC cells versus MCF-7 cells; read-out: Selectivity Index
MCF7 [21] = experiment: Induction of mitochondrial apoptosis in human MCF-7 cells assessed as chromatin shrinkage by Hoechst 33258 staining based fluorescence microscopic assay; type: functional, cell-based
MCF7 [22] = experiment: Cell cycle arrest in human MCF-7 cells assessed as downregulation of CDK2 expression by Western blot analysis; type: functional, cell-based
MDA-MB-231 [23] = experiment: Induction of apoptosis in human MDA-MB-231 cells assessed as increase in production of cleaved caspase-9 at 0.56 to 5 uM measured after 24 hrs by Western blot analysis; type: functional, cell-based; conditions: dose 0.56-5 µM
MDA-MB-231 [24] = experiment: Antitumour activity against human MDA-MB-231 cells xenografted in BALB/c nude mouse assessed as tumour growth inhibition at 30 mg/kg, ip administered once for every other day for 20 days relative to control; type: functional; conditions: MDA-MB-231, ip, 480 h, time 20 day, read-out: TGI
MDA-MB-231 [25] = experiment: Antitumour activity against human MDA-MB-231 cells xenografted in BALB/c nude mouse assessed as upregulation of cleaved poly(ADP-ribose) polymerase level at 15 to 30 mg/kg, ip administered once for every other day for 20 days by Western blot analysis; type: functional, organism-based; conditions: dose 15-30 mg/kg, time 20.0 day
MDA-MB-231 [26] = experiment: Antiproliferative activity against human MDA-MB-231 cells assessed as effect on cell viability at 0.56-5 uM for 24 hrs measured by MTT assay; type: functional, cell-based
MDA-MB-231 [27] = experiment: Induction of mitochondrial apoptosis in human MDA-MB-231 cells assessed as membrane blebbing by Hoechst 33258 staining based fluorescence microscopic assay; type: functional, cell-based
MDA-MB-231 [28] = experiment: Induction of mitochondrial apoptosis in human MDA-MB-231 cells assessed as total apoptotic cells by fluorescein isothiocyanate -annexin V/PI double staining based flow cytometric analysis (reference value: 3.5%); type: functional
MDA-MB-231 [29] = experiment: Cell cycle arrest in human MDA-MB-231 cells assessed as downregulation of CDK4 expression by Western blot analysis; type: functional, cell-based
MDA-MB-231 [30] = experiment: Antitumour activity against human MDA-MB-231 cells xenografted in BALB/c nude mouse assessed as tumour growth inhibition at 15 mg/kg, ip administered once for every other day for 20 days relative to control; type: functional; conditions: MDA-MB-231, ip, 480 h, time 20 day, read-out: TGI
MDA-MB-231 [31] = experiment: Antitumour activity against human MDA-MB-231 cells xenografted in BALB/c nude mouse assessed as upregulation of Bax level by western blot; type: functional, cell-based
MCF7 [32] = experiment: Effect on PI3K p85 expression in human MCF7 cells by Western blot analysis; type: functional, cell-based
MCF7 [33] = experiment: Induction of mitochondrial apoptosis in human MCF-7 cells assessed as total apoptotic cells by fluorescein isothiocyanate -annexin V/PI double staining based flow cytometric analysis (reference value: 4.4%); type: functional
MDA-MB-231 [34] = experiment: Antitumour activity against human MDA-MB-231 cells xenografted in BALB/c nude mouse assessed as downregulation of cyclin D3 level at 15 to 30 mg/kg, ip administered once for every other day for 20 days by Western blot analysis; type: functional, organism-based; conditions: dose 15-30 mg/kg, time 20.0 day
MDA-MB-231 [35] = experiment: Induction of mitochondrial apoptosis in human MDA-MB-231 cells assessed as viable cells at 5 uM measured after 24 hrs by FITC -annexin V/PI double staining based flow cytometric analysis (Rvb =94.3%); type: functional; conditions: read-out: Activity
MCF7 [36] = experiment: Induction of mitochondrial apoptosis in human MCF-7 cells assessed as formation of apoptotic bodies by Hoechst 33258 staining based fluorescence microscopic assay; type: functional, cell-based
[37] = Selective index, ratio of IC50 for human 293T cells to IC50 of MCF-7 cells; type: toxicity; conditions: 293T cells versus MCF-7 cells, read-out: Selectivity Index
MCF7 [38] = experiment: Cell cycle arrest in human MCF-7 cells assessed as accumulation of cells at G0/G1 phase at 15 uM measured after 24 hrs by propidium iodide staining based flow cytometry (reference value: 51.7%); type: functional
MDA-MB-231 [39] = experiment: Effect on Akt expression in human MDA-MB-231 cells by Western blot analysis; type: functional, cell-based

## CCCC/C=C/CCCCCCCCCC1(O)CC(=O)c2c(O)c(C)c(O)c(C)c2O1 (centres undefined)
MDA-MB-231 [1]
  Activity: Active
MDA-MB-231 [2]
  Activity: 21.3%
MDA-MB-231 [3]
  inhibition: Dose-Dependent Effect
MCF7 [4]
  Activity: Dose-Dependent Effect
MCF7 [5]
  Activity: Active
MCF7 [6]
  IC50: 17.5 µM
MCF7 [7]
  Activity: Dose-Dependent Effect
MDA-MB-231 [8]
  Activity: Active
MDA-MB-231 [9]
  Activity: 18.5%
MCF7 [10]
  Activity: Dose-Dependent Effect
MDA-MB-231 [11]
  Activity: Dose-Dependent Effect
MCF7 [12]
  Activity: inactive
MCF7 [13]
  Activity: 4.7%
MDA-MB-231 [14]
  Activity: Dose-Dependent Effect
MCF7 [15]
  inhibition: Dose-Dependent Effect
MDA-MB-231 [16]
  Activity: Dose-Dependent Effect
MDA-MB-231 [17]
  IC50: 6.79 µM
MDA-MB-231 [18]
  Activity: Dose-Dependent Effect
MDA-MB-231 [19]
  Activity: Active
[20]
  selectivity ratio: 2.64
MCF7 [21]
  Activity: Active
MCF7 [22]
  Activity: Dose-Dependent Effect
MDA-MB-231 [23]
  Activity: Dose-Dependent Effect
MDA-MB-231 [24]
  inhibition in vivo at 30 mg/kg: 79.3%
MDA-MB-231 [25]
  Activity: Active
MDA-MB-231 [26]
  Activity: inactive
MDA-MB-231 [27]
  Activity: Active
MDA-MB-231 [28]
  Activity: 11.8%
MDA-MB-231 [29]
  Activity: Dose-Dependent Effect
MDA-MB-231 [30]
  inhibition in vivo at 15 mg/kg: 53.6%
MDA-MB-231 [31]
  Activity: Active
MCF7 [32]
  Activity: inactive
MCF7 [33]
  Activity: 13.6%
MDA-MB-231 [34]
  Activity: Active
MDA-MB-231 [35]
  viability at 5 µM: 82%
MCF7 [36]
  Activity: Active
[37]
  selectivity ratio: 2.08
MCF7 [38]
  Activity: 66.8%
MDA-MB-231 [39]
  Activity: inactive
